Measured values: ChEMBL document CHEMBL3745645, “Synthesis, in vitro antitumor activity, dihydrofolate reductase inhibition, DNA intercalation and structure-activity relationship studies of 1,3,5-triazine analogues” (Bioorg Med Chem Lett, 2016)
Active and inactive are the calls of the source. No cut-off for these calls is given here.

Experiments:
Assay type in all cases: functional
T47D = assay: Cytotoxicity against human T47D cells at 10 uM after 48 hrs by SRB assay; conditions: read-out: GI
[1] = Cytotoxicity against human RPMI8226 cells at 10 uM after 48 hrs by SRB assay; conditions: RPMI-8226, 48 h, read-out: GI
[2] = Cytotoxicity against human Hs 578T cells at 10 uM after 48 hrs by SRB assay; conditions: read-out: GI
[3] = Cytotoxicity against human PC3 cells at 10 uM after 48 hrs by SRB assay; conditions: PC-3, 48 h, read-out: GI
KM12 = assay: Cytotoxicity against human KM12 cells at 10 uM after 48 hrs by SRB assay; conditions: KM12, 48 h, read-out: GI
[4] = Cytotoxicity against human HCT116 cells at 10 uM after 48 hrs by SRB assay; conditions: HCT-116, 48 h, read-out: GI
CCRF-CEM = assay: Cytotoxicity against human CCRF-CEM cells at 10 uM after 48 hrs by SRB assay; conditions: read-out: GI
786-0 = assay: Cytotoxicity against human 786-0 cells at 10 uM after 48 hrs by SRB assay; conditions: 786-0, 48 h, read-out: GI
NCI-H522 = assay: Cytotoxicity against human NCI-H522 cells at 10 uM after 48 hrs by SRB assay
[5] = Cytotoxicity against human HCT15 cells at 10 uM after 48 hrs by SRB assay; conditions: HCT-15, 48 h, read-out: GI
[6] = Cytotoxicity against human IGROV1 cells at 10 uM after 48 hrs by SRB assay; conditions: IGROV-1, 48 h, read-out: GI
[7] = Cytotoxicity against human DU145 cells at 10 uM after 48 hrs by SRB assay; conditions: DU-145, 48 h, read-out: GI
[8] = Cytotoxicity against human OVCAR4 cells at 10 uM after 48 hrs by SRB assay; conditions: OVCAR-4, 48 h, read-out: GI
MDA-MB-468 = assay: Cytotoxicity against human MDA-MB-468 cells at 10 uM after 48 hrs by SRB assay; conditions: MDA-MB-468, 48 h, read-out: GI
A549 = assay: Cytotoxicity against human A549 cells at 10 uM after 48 hrs by SRB assay; conditions: A549, 48 h, read-out: GI
[9] = Cytotoxicity against human BT549 cells at 10 uM after 48 hrs by SRB assay; conditions: BT-549, 48 h, read-out: GI
[10] = Cytotoxicity against human UO31 cells at 10 uM after 48 hrs by SRB assay; conditions: UO-31, 48 h, read-out: GI
K562 = assay: Cytotoxicity against human K562 cells at 10 uM after 48 hrs by SRB assay; conditions: K562, 48 h, read-out: GI
[11] = Cytotoxicity against human OVCAR3 cells at 10 uM after 48 hrs by SRB assay; conditions: OVCAR-3, 48 h, read-out: GI
[12] = Cytotoxicity against human TK10 cells at 10 uM after 48 hrs by SRB assay; conditions: TK-10, 48 h, read-out: GI
[13] = Cytotoxicity against human SNB19 cells at 10 uM after 48 hrs by SRB assay; conditions: SNB-19, 48 h, read-out: GI
HT-29 = assay: Cytotoxicity against human HT-29 cells at 10 uM after 48 hrs by SRB assay; conditions: HT-29, 48 h, read-out: GI
[14] = Cytotoxicity against human OVCAR8 cells at 10 uM after 48 hrs by SRB assay; conditions: OVCAR-8, 48 h, read-out: GI
[15] = Cytotoxicity against human SF268 cells at 10 uM after 48 hrs by SRB assay; conditions: SF-268, 48 h, read-out: GI
SN12C = assay: Cytotoxicity against human SN12C cells at 10 uM after 48 hrs by SRB assay; conditions: read-out: GI
[16] = Cytotoxicity against human SF539 cells at 10 uM after 48 hrs by SRB assay; conditions: SF-539, 48 h, read-out: GI
NCI-H460 = assay: Cytotoxicity against human NCI-H460 cells at 10 uM after 48 hrs by SRB assay; conditions: NCI-H460, 48 h, read-out: GI
SK-MEL-28 = assay: Cytotoxicity against human SK-MEL-28 cells at 10 uM after 48 hrs by SRB assay
MDA-MB-231 = assay: Cytotoxicity against human MDA-MB-231 cells at 10 uM after 48 hrs by SRB assay; conditions: MDA-MB-231, 48 h, read-out: GI
[17] = Cytotoxicity against human LOXIMVI cells at 10 uM after 48 hrs by SRB assay; conditions: LOX IMVI, read-out: GI
ACHN = assay: Cytotoxicity against human ACHN cells at 10 uM after 48 hrs by SRB assay; conditions: read-out: GI
[18] = Cytotoxicity against human NCI-ADR-RES cells at 10 uM after 48 hrs by SRB assay; conditions: read-out: GI
[19] = Cytotoxicity against human SKOV3 cells at 10 uM after 48 hrs by SRB assay; conditions: SK-OV-3, 48 h, read-out: GI
[20] = Cytotoxicity against human SW620 cells at 10 uM after 48 hrs by SRB assay; conditions: SW-620, 48 h, read-out: GI
MCF7 = assay: Cytotoxicity against human MCF7 cells at 10 uM after 48 hrs by SRB assay; conditions: MCF7, 48 h, read-out: GI
A498 = assay: Cytotoxicity against human A498 cells at 10 uM after 48 hrs by SRB assay; conditions: A498, 48 h, read-out: GI
Malme-3M = assay: Cytotoxicity against human MALME-3M cells at 10 uM after 48 hrs by SRB assay
[21] = Cytotoxicity against human OVCAR5 cells at 10 uM after 48 hrs by SRB assay; conditions: OVCAR-5, 48 h, read-out: GI
[22] = Cytotoxicity against human RXF393 cells at 10 uM after 48 hrs by SRB assay; conditions: RXF 393, 48 h, read-out: GI
[23] = Cytotoxicity against human HOP92 cells at 10 uM after 48 hrs by SRB assay; conditions: HOP-92, 48 h, read-out: GI
SK-MEL-2 = assay: Cytotoxicity against human SK-MEL-2 cells at 10 uM after 48 hrs by SRB assay
[24] = Cytotoxicity against human HCC2998 cells at 10 uM after 48 hrs by SRB assay; conditions: HCC 2998, 48 h, read-out: GI
[25] = Cytotoxicity against human UACC257 cells at 10 uM after 48 hrs by SRB assay; conditions: UACC-257, 48 h, read-out: GI
[26] = Cytotoxicity against human MOLT4 cells at 10 uM after 48 hrs by SRB assay; conditions: MOLT-4, 48 h, read-out: GI
[27] = Cytotoxicity against human SNB75 cells at 10 uM after 48 hrs by SRB assay; conditions: SNB-75, 48 h, read-out: GI
NCI-H226 = assay: Cytotoxicity against human NCI-H226 cells at 10 uM after 48 hrs by SRB assay; conditions: NCI-H226, 48 h, read-out: GI
MDA-MB-435 = assay: Cytotoxicity against human MDA-MB-435 cells at 10 uM after 48 hrs by SRB assay; conditions: MDA-MB-435, 48 h, read-out: GI
COLO 205 = assay: Cytotoxicity against human COLO205 cells at 10 uM after 48 hrs by SRB assay
SR = assay: Cytotoxicity against human SR cells at 10 uM after 48 hrs by SRB assay; conditions: read-out: GI
[28] = Cytotoxicity against human SF295 cells at 10 uM after 48 hrs by SRB assay; conditions: SF-295, 48 h, read-out: GI
[29] = Cytotoxicity against human HL-60(TB) cells at 10 uM after 48 hrs by SRB assay; conditions: HL-60, 48 h, read-out: GI
[30] = Cytotoxicity against human Caki1 cells at 10 uM after 48 hrs by SRB assay; conditions: CAKI-1, 48 h, read-out: GI
SK-MEL-5 = assay: Cytotoxicity against human SK-MEL-5 cells at 10 uM after 48 hrs by SRB assay; conditions: SK-MEL-5, 48 h, read-out: GI
[31] = Cytotoxicity against human UACC62 cells at 10 uM after 48 hrs by SRB assay; conditions: UACC-62, 48 h, read-out: GI
[32] = Cytotoxicity against human HOP62 cells at 10 uM after 48 hrs by SRB assay; conditions: HOP-62, 48 h, read-out: GI
M14 = assay: Cytotoxicity against human M14 cells at 10 uM after 48 hrs by SRB assay

Cc1nc2cc(Nc3nc(Cl)nc(Nc4ccc(F)cc4)n3)ccc2n1Cc1ccccc1
inhibition of growth at 10 µM (T47D): 43% | inhibition of growth at 10 µM [1]: 84.7% | inhibition of growth at 10 µM [2]: 20.5% | inhibition of growth at 10 µM [3]: 21.2% | inhibition of growth at 10 µM (KM12): 30.8% | inhibition of growth at 10 µM [4]: 96.1% | inhibition of growth at 10 µM (CCRF-CEM): 21.5% | inhibition of growth at 10 µM (786-0): 67% | growth inhibition (GI) (NCI-H522): Active | inhibition of growth at 10 µM [5]: 27.9% | inhibition of growth at 10 µM [6]: 17% | inhibition of growth at 10 µM [7]: 36% | inhibition of growth at 10 µM [8]: 14.2% | inhibition of growth at 10 µM (MDA-MB-468): 23.8% | inhibition of growth at 10 µM (A549): 13.3% | inhibition of growth at 10 µM [9]: 9.39% | inhibition of growth at 10 µM [10]: 19.3% | inhibition of growth at 10 µM (K562): 14.8% | inhibition of growth at 10 µM [11]: 5.75% | inhibition of growth at 10 µM [12]: 41.5% | inhibition of growth at 10 µM [13]: 7.64% | inhibition of growth at 10 µM (HT-29): 5.46% | inhibition of growth at 10 µM [14]: 18.5% | inhibition of growth at 10 µM [15]: 8.93% | inhibition of growth at 10 µM (SN12C): 22.1% | inhibition of growth at 10 µM [16]: 29.8% | inhibition of growth at 10 µM (NCI-H460): 12% | growth inhibition (GI) (SK-MEL-28): inactive | inhibition of growth at 10 µM (MDA-MB-231): 17.9% | inhibition of growth at 10 µM [17]: 56.7% | inhibition of growth at 10 µM (ACHN): 63.8% | inhibition of growth at 10 µM [18]: 4.36% | inhibition of growth at 10 µM [19]: 4.12% | inhibition of growth at 10 µM [20]: 15.2% | inhibition of growth at 10 µM (MCF7): 38.5% | inhibition of growth at 10 µM (A498): 30.6% | growth inhibition (GI) (Malme-3M): inactive | inhibition of growth at 10 µM [21]: 3.73% | inhibition of growth at 10 µM [22]: 22.9% | inhibition of growth at 10 µM [23]: 49.3% | growth inhibition (GI) (SK-MEL-2): inactive | inhibition of growth at 10 µM [24]: 5.54% | inhibition of growth at 10 µM [25]: 10.3% | inhibition of growth at 10 µM [26]: 9.41% | inhibition of growth at 10 µM [27]: 10% | inhibition of growth at 10 µM (NCI-H226): 19.6% | inhibition of growth at 10 µM (MDA-MB-435): 4.44% | growth inhibition (GI) (COLO 205): inactive | inhibition of growth at 10 µM (SR): 42.5% | inhibition of growth at 10 µM [28]: 3.61% | inhibition of growth at 10 µM [29]: 46.8% | inhibition of growth at 10 µM [30]: 12.3% | inhibition of growth at 10 µM (SK-MEL-5): 7.59% | inhibition of growth at 10 µM [31]: 17.6% | inhibition of growth at 10 µM [32]: 11.6% | growth inhibition (GI) (M14): inactive
